Assay results published in ChEMBL document CHEMBL1201862, “PubChem BioAssay data set” (2004).
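Following 48 hours of exposure in 96-well plates, responses at five concentrations were used to interpolate endpoints linearly. GI50 = concentration required for 50% inhibition of growth.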 Active and inactive are the calls of the source. No stated cut-off is given here; in the data, active = GI50 up to about 1.1 µM and inactive = higher.

Key:
Assay in all cases: growth of human tumour cells (NCI), 48 h
LOX IMVI = test system: LOX IMVI
SNB-19 = test system: SNB-19
SR = test system: SR
SNB-75 = test system: SNB-75
EKVX = test system: EKVX
RXF 393 = test system: RXF 393
Malme-3M = test system: Malme-3M
Hs-578T = test system: Hs-578T
UACC-257 = test system: UACC-257
M14 = test system: M14
SF-295 = test system: SF-295
NCI-H23 = test system: NCI-H23
PC-3 = test system: PC-3
UO-31 = test system: UO-31
SF-268 = test system: SF-268
TK-10 = test system: TK-10
HT-29 = test system: HT-29
UACC-62 = test system: UACC-62
K562 = test system: K562

| Compound | GI50 (LOX IMVI) | GI50 (SNB-19) | GI50 (SR) | GI50 (SNB-75) | GI50 (EKVX) | GI50 (RXF 393) | GI50 (Malme-3M) | GI50 (Hs-578T) | GI50 (UACC-257) | GI50 (M14) | GI50 (SF-295) | GI50 (NCI-H23) | GI50 (PC-3) | GI50 (UO-31) | GI50 (SF-268) | GI50 (TK-10) | GI50 (HT-29) | GI50 (UACC-62) | GI50 (K562) |
| --- | --- | --- | --- | --- | --- | --- | --- | --- | --- | --- | --- | --- | --- | --- | --- | --- | --- | --- | --- |
| C[C@]1(O)CC[C@H]2[C@@H]3CCc4cc(O)ccc4[C@H]3CC[C@@]21C | 14.5 µM (inactive) | 92.3 µM (inactive) | 0.21 µM (active) | > 100 µM (inactive) | 1.32 µM (inactive) | 0.889 µM (active) | 0.353 µM (active) | 1.19 µM (inactive) | 28.2 µM (inactive) | 1.18 µM (inactive) | 1.48 µM (inactive) | 3.03 µM (inactive) | 1.87 µM (inactive) | 8.32 µM (inactive) | 3.46 µM (inactive) | 0.826 µM (active) | 6.7 µM (inactive) |  |  |
| COc1cc(/C=c2\sc3n(c2=O)C(c2ccc(Cl)cc2)C2=C(CCCC2C)N=3)cc(OC)c1OC (stereo not given) | > 100 µM (inactive) | > 100 µM (inactive) | > 100 µM (inactive) | > 100 µM (inactive) | > 100 µM (inactive) | > 100 µM (inactive) |  | > 100 µM (inactive) | > 100 µM (inactive) | > 100 µM (inactive) |  |  | > 100 µM (inactive) | > 100 µM (inactive) | > 100 µM (inactive) | > 100 µM (inactive) | > 100 µM (inactive) | > 100 µM (inactive) | > 100 µM (inactive) |
| Cc1ccc(C2SCc3nc4ccccc4n32)cc1 (stereo not given) | 4.47 µM (inactive) | 4.65 µM (inactive) |  | 0.0103 µM (active) | 5.35 µM (inactive) | 1.98 µM (inactive) | 4.04 µM (inactive) | 2.61 µM (inactive) | 4.79 µM (inactive) | 4.49 µM (inactive) | 2.19 µM (inactive) | 2.72 µM (inactive) | 1.88 µM (inactive) | 5.36 µM (inactive) | 11.7 µM (inactive) | 3.54 µM (inactive) | 2.47 µM (inactive) | 2.43 µM (inactive) | 0.671 µM (active) |
| Cc1cc(NS(=O)(=O)c2ccc(NC(=O)COC(=O)c3cccc4c(=O)c5ccccc5[nH]c34)cc2)no1 | > 100 µM (inactive) | > 100 µM (inactive) | > 100 µM (inactive) | > 100 µM (inactive) | > 100 µM (inactive) | > 100 µM (inactive) | > 100 µM (inactive) |  | > 100 µM (inactive) | > 100 µM (inactive) | > 100 µM (inactive) | > 100 µM (inactive) |  | > 100 µM (inactive) | > 100 µM (inactive) | > 100 µM (inactive) | > 100 µM (inactive) | > 100 µM (inactive) | > 100 µM (inactive) |
| CC(=O)OC1CC2OC(Cc3ccccc32)O1 (stereo not given) | > 100 µM (inactive) | > 100 µM (inactive) | > 100 µM (inactive) | 65 µM (inactive) | > 100 µM (inactive) | > 100 µM (inactive) | 27.6 µM (inactive) |  | > 100 µM (inactive) | 79.1 µM (inactive) | 65.3 µM (inactive) | > 100 µM (inactive) |  | > 100 µM (inactive) | > 100 µM (inactive) | > 100 µM (inactive) | > 100 µM (inactive) | > 100 µM (inactive) | > 100 µM (inactive) |
| COc1cccc(C2c3cc4c(cc3OC(N3CCCC3)C2c2ccccc2)OCO4)c1O (stereo not given) | 12.4 µM (inactive) | 5.57 µM (inactive) | 4.76 µM (inactive) | 5.74 µM (inactive) | 16.6 µM (inactive) |  |  | 0.279 µM (active) | 11.4 µM (inactive) | 11 µM (inactive) | 3.74 µM (inactive) | 14 µM (inactive) | 8.28 µM (inactive) | 3.46 µM (inactive) | 9.02 µM (inactive) | 13.7 µM (inactive) | 7.43 µM (inactive) | 14.1 µM (inactive) | 5.35 µM (inactive) |
| CC(C)(C)C(=O)/C=C(\OB(F)F)C(C)(C)C | > 100 µM (inactive) | > 100 µM (inactive) | 84.5 µM (inactive) | > 100 µM (inactive) | > 100 µM (inactive) | > 100 µM (inactive) | > 100 µM (inactive) | > 100 µM (inactive) | > 100 µM (inactive) | > 100 µM (inactive) | > 100 µM (inactive) | > 100 µM (inactive) | > 100 µM (inactive) | > 100 µM (inactive) | > 100 µM (inactive) | > 100 µM (inactive) | > 100 µM (inactive) |  | > 100 µM (inactive) |
| C=C(COCO)C(C)=O | 15.9 µM (inactive) | > 66.8 µM (inactive) |  | 16.3 µM (inactive) | 20.4 µM (inactive) | 14.3 µM (inactive) | 9.73 µM (inactive) | 23.9 µM (inactive) | 15.3 µM (inactive) | 13 µM (inactive) | > 75 µM (inactive) | 17.5 µM (inactive) | 19.1 µM (inactive) | 12.2 µM (inactive) | 20 µM (inactive) | 13.7 µM (inactive) | 17.7 µM (inactive) | 17.2 µM (inactive) | 3.45 µM (inactive) |
| O/N=C1/CC2(N3CCOCC3)C3CC/C(=N\O)C2CC1(Cc1ccccc1)C3 (stereo not given) | > 100 µM (inactive) | > 100 µM (inactive) | > 100 µM (inactive) | 36.1 µM (inactive) | > 100 µM (inactive) | 18.3 µM (inactive) | > 100 µM (inactive) |  | 66.8 µM (inactive) | > 100 µM (inactive) | > 100 µM (inactive) | > 100 µM (inactive) | > 100 µM (inactive) | > 100 µM (inactive) | > 100 µM (inactive) |  | 95.9 µM (inactive) | > 100 µM (inactive) | 74 µM (inactive) |
| O=C1CC(c2ccc(Cl)cc2)Oc2ccccc21 (stereo not given) | 29.8 µM (inactive) | 26.8 µM (inactive) | 8.36 µM (inactive) | 13.6 µM (inactive) | 18.6 µM (inactive) |  |  | 15 µM (inactive) | 40.3 µM (inactive) | 17.1 µM (inactive) | 24.4 µM (inactive) | 15.2 µM (inactive) | 20.2 µM (inactive) | 18.1 µM (inactive) | 28.4 µM (inactive) | 27.4 µM (inactive) | 8.71 µM (inactive) | 20.6 µM (inactive) | 4.86 µM (inactive) |
| Nc1ncc(Cc2ccc3c(c2)OCO3)c(N)n1 | > 100 µM (inactive) | > 100 µM (inactive) | > 100 µM (inactive) |  | > 100 µM (inactive) | > 100 µM (inactive) | > 100 µM (inactive) | > 100 µM (inactive) | > 100 µM (inactive) | > 100 µM (inactive) | > 100 µM (inactive) | > 100 µM (inactive) | > 100 µM (inactive) | > 100 µM (inactive) | > 100 µM (inactive) | > 100 µM (inactive) | > 100 µM (inactive) | > 100 µM (inactive) | > 100 µM (inactive) |
